Measurements from PubChem BioAssay (NCI).
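Exposure lasted 48 hours, with cells grown in 96-well plates and compounds tested at five concentrations. GI50 marks 50% less growth. TGI: total growth inhibition.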

Legend:
Test in all cases: NCI tumour cell line growth inhibition, 48 h
786-0 renal = tested on: 786-0 renal
A498 renal = tested on: A498 renal
A549 NSCLC = tested on: A549 NSCLC
ACHN renal = tested on: ACHN renal
BT-549 breast = tested on: BT-549 breast
CAKI-1 renal = tested on: CAKI-1 renal
CCRF-CEM leukemia = tested on: CCRF-CEM leukemia
COLO 205 colon = tested on: COLO 205 colon
DU-145 prostate = tested on: DU-145 prostate
EKVX NSCLC = tested on: EKVX NSCLC
HCC-2998 colon = tested on: HCC-2998 colon
HCT-116 colon = tested on: HCT-116 colon
HCT-15 colon = tested on: HCT-15 colon
HOP-62 NSCLC = tested on: HOP-62 NSCLC
HS 578T breast = tested on: HS 578T breast
HT29 colon = tested on: HT29 colon
IGROV1 ovarian = tested on: IGROV1 ovarian
K-562 leukemia = tested on: K-562 leukemia
KM12 colon = tested on: KM12 colon
M14 melanoma = tested on: M14 melanoma
MALME-3M melanoma = tested on: MALME-3M melanoma
MCF7 breast = tested on: MCF7 breast
MDA-MB-231 breast = tested on: MDA-MB-231 breast
MDA-MB-435 = tested on: MDA-MB-435
MOLT-4 leukemia = tested on: MOLT-4 leukemia
NCI-H226 lung = tested on: NCI-H226 lung
NCI-H23 lung = tested on: NCI-H23 lung
NCI-H460 lung = tested on: NCI-H460 lung
NCI-H522 lung = tested on: NCI-H522 lung
NCI/ADR-RES ovarian = tested on: NCI/ADR-RES ovarian
OVCAR-3 ovarian = tested on: OVCAR-3 ovarian
OVCAR-4 ovarian = tested on: OVCAR-4 ovarian
OVCAR-5 ovarian = tested on: OVCAR-5 ovarian
OVCAR-8 ovarian = tested on: OVCAR-8 ovarian
PC-3 prostate = tested on: PC-3 prostate
RPMI-8226 leukemia = tested on: RPMI-8226 leukemia
RXF 393 renal = tested on: RXF 393 renal
SF-268 CNS = tested on: SF-268 CNS
SF-295 CNS = tested on: SF-295 CNS
SK-MEL-2 melanoma = tested on: SK-MEL-2 melanoma
SK-MEL-28 melanoma = tested on: SK-MEL-28 melanoma
SK-MEL-5 melanoma = tested on: SK-MEL-5 melanoma
SK-OV-3 ovarian = tested on: SK-OV-3 ovarian
SN12C renal = tested on: SN12C renal
SNB-19 CNS = tested on: SNB-19 CNS
SNB-75 CNS = tested on: SNB-75 CNS
SR leukemia = tested on: SR leukemia
SW-620 colon = tested on: SW-620 colon
T-47D breast = tested on: T-47D breast
TK-10 renal = tested on: TK-10 renal
U251 CNS = tested on: U251 CNS
UACC-257 melanoma = tested on: UACC-257 melanoma
UACC-62 melanoma = tested on: UACC-62 melanoma
UO-31 renal = tested on: UO-31 renal
HL-60(TB) leukemia = tested on: HL-60(TB) leukemia
HOP-92 NSCLC = tested on: HOP-92 NSCLC
LOX IMVI melanoma = tested on: LOX IMVI melanoma
SF-539 CNS = tested on: SF-539 CNS

Compound: OCCN(CCO)c1ccc2c(-c3ccccc3)cc(N(CCO)CCO)nc2n1
- TGI (786-0 renal): > 100 µM
- TGI (A498 renal): > 100 µM
- TGI (A549 NSCLC): > 100 µM
- TGI (ACHN renal): > 100 µM
- TGI (BT-549 breast): > 100 µM
- TGI (CAKI-1 renal): > 100 µM
- TGI (CCRF-CEM leukemia): > 100 µM
- TGI (COLO 205 colon): > 100 µM
- TGI (DU-145 prostate): > 100 µM
- TGI (EKVX NSCLC): > 100 µM
- TGI (HCC-2998 colon): > 100 µM
- TGI (HCT-116 colon): > 100 µM
- TGI (HCT-15 colon): > 100 µM
- TGI (HOP-62 NSCLC): > 100 µM
- TGI (HS 578T breast): > 100 µM
- TGI (HT29 colon): > 100 µM
- TGI (IGROV1 ovarian): > 100 µM
- TGI (K-562 leukemia): > 100 µM
- TGI (KM12 colon): > 100 µM
- TGI (M14 melanoma): > 100 µM
- TGI (MALME-3M melanoma): > 100 µM
- TGI (MCF7 breast): > 100 µM
- TGI (MDA-MB-231 breast): > 100 µM
- TGI (MDA-MB-435): > 100 µM
- TGI (MOLT-4 leukemia): > 100 µM
- TGI (NCI-H226 lung): > 100 µM
- TGI (NCI-H23 lung): > 100 µM
- TGI (NCI-H460 lung): > 100 µM
- TGI (NCI-H522 lung): > 100 µM
- TGI (NCI/ADR-RES ovarian): > 100 µM
- TGI (OVCAR-3 ovarian): > 100 µM
- TGI (OVCAR-4 ovarian): > 100 µM
- TGI (OVCAR-5 ovarian): > 100 µM
- TGI (OVCAR-8 ovarian): > 100 µM
- TGI (PC-3 prostate): > 100 µM
- TGI (RPMI-8226 leukemia): > 100 µM
- TGI (RXF 393 renal): > 100 µM
- TGI (SF-268 CNS): > 100 µM
- TGI (SF-295 CNS): > 100 µM
- TGI (SK-MEL-2 melanoma): > 100 µM
- TGI (SK-MEL-28 melanoma): > 100 µM
- TGI (SK-MEL-5 melanoma): > 100 µM
- TGI (SK-OV-3 ovarian): > 100 µM
- TGI (SN12C renal): > 100 µM
- TGI (SNB-19 CNS): > 100 µM
- TGI (SNB-75 CNS): > 100 µM
- TGI (SR leukemia): > 100 µM
- TGI (SW-620 colon): > 100 µM
- TGI (T-47D breast): > 100 µM
- TGI (TK-10 renal): > 100 µM
- TGI (U251 CNS): > 100 µM
- TGI (UACC-257 melanoma): > 100 µM
- TGI (UACC-62 melanoma): > 100 µM
- TGI (UO-31 renal): > 100 µM

Compound: Cn1c(-c2ccncc2)c(-c2ccc(F)cc2)c2ncccc21
- GI50 (786-0 renal): > 25 µM
- TGI (786-0 renal): > 25 µM
- GI50 (A498 renal): > 14.4 µM
- TGI (A498 renal): > 25 µM
- GI50 (A549 NSCLC): > 25 µM
- TGI (A549 NSCLC): > 25 µM
- GI50 (ACHN renal): 16.4 µM
- TGI (ACHN renal): > 25 µM
- GI50 (BT-549 breast): > 25 µM
- TGI (BT-549 breast): > 25 µM
- GI50 (CAKI-1 renal): > 25 µM
- TGI (CAKI-1 renal): > 25 µM
- GI50 (CCRF-CEM leukemia): > 25 µM
- TGI (CCRF-CEM leukemia): > 25 µM
- GI50 (COLO 205 colon): > 25 µM
- TGI (COLO 205 colon): > 25 µM
- GI50 (DU-145 prostate): > 25 µM
- TGI (DU-145 prostate): > 25 µM
- GI50 (HCC-2998 colon): > 25 µM
- TGI (HCC-2998 colon): > 25 µM
- GI50 (HCT-116 colon): > 25 µM
- TGI (HCT-116 colon): > 25 µM
- GI50 (HCT-15 colon): > 25 µM
- TGI (HCT-15 colon): > 25 µM
- GI50 (HL-60(TB) leukemia): > 25 µM
- TGI (HL-60(TB) leukemia): > 25 µM
- GI50 (HOP-62 NSCLC): > 25 µM
- TGI (HOP-62 NSCLC): > 25 µM
- GI50 (HOP-92 NSCLC): 7.39 µM
- TGI (HOP-92 NSCLC): > 25 µM
- GI50 (HS 578T breast): > 25 µM
- TGI (HS 578T breast): > 25 µM
- GI50 (HT29 colon): > 25 µM
- TGI (HT29 colon): > 25 µM
- GI50 (IGROV1 ovarian): > 23.1 µM
- TGI (IGROV1 ovarian): > 25 µM
- GI50 (K-562 leukemia): > 25 µM
- TGI (K-562 leukemia): > 25 µM
- GI50 (KM12 colon): > 25 µM
- TGI (KM12 colon): > 25 µM
- GI50 (LOX IMVI melanoma): > 25 µM
- TGI (LOX IMVI melanoma): > 25 µM
- GI50 (M14 melanoma): > 25 µM
- TGI (M14 melanoma): > 25 µM
- GI50 (MALME-3M melanoma): > 25 µM
- TGI (MALME-3M melanoma): > 25 µM
- GI50 (MCF7 breast): > 25 µM
- TGI (MCF7 breast): > 25 µM
- GI50 (MDA-MB-231 breast): > 25 µM
- TGI (MDA-MB-231 breast): > 25 µM
- GI50 (MDA-MB-435): > 25 µM
- TGI (MDA-MB-435): > 25 µM
- GI50 (MOLT-4 leukemia): > 25 µM
- TGI (MOLT-4 leukemia): > 25 µM
- GI50 (NCI-H226 lung): > 25 µM
- TGI (NCI-H226 lung): > 25 µM
- GI50 (NCI-H23 lung): > 25 µM
- TGI (NCI-H23 lung): > 25 µM
- GI50 (NCI-H460 lung): > 25 µM
- TGI (NCI-H460 lung): > 25 µM
- GI50 (NCI-H522 lung): > 25 µM
- TGI (NCI-H522 lung): > 25 µM
- GI50 (NCI/ADR-RES ovarian): > 25 µM
- TGI (NCI/ADR-RES ovarian): > 25 µM
- GI50 (OVCAR-3 ovarian): > 25 µM
- TGI (OVCAR-3 ovarian): > 25 µM
- GI50 (OVCAR-4 ovarian): > 25 µM
- TGI (OVCAR-4 ovarian): > 25 µM
- GI50 (OVCAR-5 ovarian): > 25 µM
- TGI (OVCAR-5 ovarian): > 25 µM
- GI50 (OVCAR-8 ovarian): > 25 µM
- TGI (OVCAR-8 ovarian): > 25 µM
- GI50 (PC-3 prostate): > 25 µM
- TGI (PC-3 prostate): > 25 µM
- GI50 (RPMI-8226 leukemia): > 25 µM
- TGI (RPMI-8226 leukemia): > 25 µM
- GI50 (RXF 393 renal): > 25 µM
- TGI (RXF 393 renal): > 25 µM
- GI50 (SF-268 CNS): > 25 µM
- TGI (SF-268 CNS): > 25 µM
- GI50 (SF-295 CNS): > 25 µM
- TGI (SF-295 CNS): > 25 µM
- GI50 (SF-539 CNS): > 25 µM
- TGI (SF-539 CNS): > 25 µM
- GI50 (SK-MEL-2 melanoma): > 25 µM
- TGI (SK-MEL-2 melanoma): > 25 µM
- GI50 (SK-MEL-28 melanoma): > 25 µM
- TGI (SK-MEL-28 melanoma): > 25 µM
- GI50 (SK-MEL-5 melanoma): > 25 µM
- TGI (SK-MEL-5 melanoma): > 25 µM
- GI50 (SK-OV-3 ovarian): > 25 µM
- TGI (SK-OV-3 ovarian): > 25 µM
- GI50 (SN12C renal): > 25 µM
- TGI (SN12C renal): > 25 µM
- GI50 (SNB-19 CNS): > 25 µM
- TGI (SNB-19 CNS): > 25 µM
- GI50 (SNB-75 CNS): > 25 µM
- TGI (SNB-75 CNS): > 25 µM
- GI50 (SR leukemia): > 25 µM
- TGI (SR leukemia): > 25 µM
- GI50 (SW-620 colon): > 25 µM
- TGI (SW-620 colon): > 25 µM
- GI50 (T-47D breast): > 25 µM
- TGI (T-47D breast): > 25 µM
- GI50 (TK-10 renal): 16.4 µM
- TGI (TK-10 renal): > 25 µM
- GI50 (U251 CNS): > 25 µM
- TGI (U251 CNS): > 25 µM
- GI50 (UACC-257 melanoma): > 25 µM
- TGI (UACC-257 melanoma): > 25 µM
- GI50 (UACC-62 melanoma): > 25 µM
- TGI (UACC-62 melanoma): > 25 µM
- GI50 (UO-31 renal): 10.8 µM
- TGI (UO-31 renal): > 25 µM
